Source: patent US9930888B2, “Composition” (Conopco, Inc., priority 2013, dated 2018)

Test system: S. epidermidis
Assay: bacterial respiration of S. epidermidis suspension in microplate
Type: cell-based
Settings: lactam pre-blended with hydrotrope, added to remainder of composition, diluted to 11.5 ppm and 0.575 ppm; 20 hours
Experimental: Test samples were diluted in sterile water to achieve a 11.5 ppm level of lactam. Dilute solution (80 μl) was added to a S. epidermidis suspension (20 μl) of bacteria at a concentration of 8 logs in a microplate. Growth media (100 μl tryptone soya broth) was added to each well of the microplate and incubated for 20 hours. Bacterial respiration was measured every 30 minutes and the results were: • A—lactam+hydrotrope only (respiration of surviving bacteria detected ˜4-5 h) • B—lactam added directly to base formulation (which contains MPG)—no pre-mixing prior to addition (respiration of surviving bacteria detected 4-5 hrs) • C—lactam pre-mixed with hydrotrope and then added to base formulation (respiration of surviving bacteria not detected—20 hrs is max detection time) • D—hydrotrope added to base formulation (respiration of surviving bacteria detected 3-4 hrs). The example below is from data obtained when pre-blending lactams with hydrotrope before adding to the remainder of the composition, and diluting to 11.5 ppm and 0.575 ppm in sterile water in order to assess efficacy against S. epidermidis suspension Dilute solution (80 μl) was added to a S. epidermidis suspension (20 μl) of bacteria at a concentration of 8 logs in a microplate. Growth media (100 μl tryptone soya broth) was added to each well of the microplate and incubated for 20 hours. Bacterial respiration was measured every 30 minutes. Data of the test samples were then compared to un-treated cell suspensions (sterile water added instead of test samples) and percent inhibition calculated.

Row | Structure (SMILES) | Result (inhibition of bacterial respiration versus water control)
1 | C=C1NC(=O)C=C1c1ccc(Br)cc1 [5-methylene-4-(4′-bromophenyl)-dihydroprrol-2-one] | 82.5%
2 | C=C1NC(=O)CC1c1ccccc1F (centres unmarked) [5-methylene-4-(2′-fluorophenyl)-dihydropyrrol-2-one] | 79.4%
